Biological target: T1, G protein-coupled receptor-91 (GPR91) (Rattus norvegicus, UniProt Q6IYF9)
T1 construct: gene Sucnr1
Assay: cell-based

T1 sequence (Q6IYF9 whole entry): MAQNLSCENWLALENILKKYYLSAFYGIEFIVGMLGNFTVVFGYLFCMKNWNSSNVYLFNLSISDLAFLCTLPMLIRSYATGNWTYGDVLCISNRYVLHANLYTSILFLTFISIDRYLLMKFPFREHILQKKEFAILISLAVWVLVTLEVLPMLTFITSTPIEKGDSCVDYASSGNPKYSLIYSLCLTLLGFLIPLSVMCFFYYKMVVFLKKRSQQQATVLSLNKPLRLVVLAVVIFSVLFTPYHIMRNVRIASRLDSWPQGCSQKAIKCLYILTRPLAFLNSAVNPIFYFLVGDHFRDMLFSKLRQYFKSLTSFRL

## O=C(O)CCC(=O)O [succinate]
  EC50: 154 µM

— PMC5986788, “Succinate induces aberrant mitochondrial fission in cardiomyocytes through GPR91 signaling” (Cell Death & Disease, 2018)
